pIC50: −log10 of the molar value.
Experiments:
[1] = system: contractile response to bradykinin; test: Augmentation of contractile response of isolated guinea-pig ileum to bradykinin; settings: bradykinin 0.005 μg/ml, compound added 5 minutes before, read-out: Bradykinin AC50: concentration of compound producing 50% augmentation of the contractive action of bradykinin on the guinea-pig ileum
Description: (§1) Isolated guinea-pig ileum was suspended in the organ bath containing 20 ml of Tyrode's solution of 30° C. gassed with 95% O2 +5% CO2. The contraction induced by the addition of angiotensin I (0.1 μg/ml) at intervals of 10 minutes was recorded on a recticorder (Nihon Koden) for 90 seconds using FD pick up (ST-1T-H, Nihon Koden).
(§2) The test compounds were added to the bath 5 minutes before the addition of angiotensin I.
From the fact that kininase II, which destroys bradykinin having contractile action of isolated guinea-pig ileum, is thought to be identical with angiotensin-converting enzyme, augmentation of the contractile response to bradykinin by test compounds was examined by using bradykinin (0.005 μg/ml) in place of angiotensin I according to the above mentioned method.

[2] = system: contractile response of isolated guinea-pig ileum to angiotensin I; test: Inhibition of contractile response of isolated guinea-pig ileum to angiotensin I (bioassay of angiotensin-converting enzyme inhibitory activity); settings: angiotensin I 0.1 μg/ml, Tyrode's solution 30° C., compound added 5 minutes before, read-out: Angiotensin I IC50: concentration of compound producing 50% inhibition of the contractive action of angiotensin I on the guinea-pig ileum
Description: As the method of measurement of angiotensin-converting enzyme activity, bioassay for the contractile response of isolated smooth muscle or the pressor response of normal animals and biochemical assay for the enzyme isolated from lung or other organs of animals are known. The former is found more advantageous than the latter for the examination of the convertion of angiotensin I to angiotensin II in vivo.
In the present study, therefore, we adopted the bioassay for contractile response of isolated guinea-pig ileum to angiotensin I.
as §1, §2
The inhibitory activity of angiotensin-converting enzyme was calculated by the following formula. [formula]

[3] = molecular target: T1, angiotensin-converting enzyme (Oryctolagus cuniculus, UniProt P12822); test: Inhibitory activity of angiotensin-converting enzyme extracted from rabbit lung (spectrophotometry, HHL substrate); format: biochemical; settings: 5 mM HHL, pH 8.3, 37° C., 30 minutes, read-out: Angiotensin-converting enzyme IC50: concentration of compound producing 50% inhibition against angiotensin-converting enzyme
T1 construct: extracted from rabbit lung; from tissue; host or cells: rabbit lung
T1 sequence (P12822 34-1310): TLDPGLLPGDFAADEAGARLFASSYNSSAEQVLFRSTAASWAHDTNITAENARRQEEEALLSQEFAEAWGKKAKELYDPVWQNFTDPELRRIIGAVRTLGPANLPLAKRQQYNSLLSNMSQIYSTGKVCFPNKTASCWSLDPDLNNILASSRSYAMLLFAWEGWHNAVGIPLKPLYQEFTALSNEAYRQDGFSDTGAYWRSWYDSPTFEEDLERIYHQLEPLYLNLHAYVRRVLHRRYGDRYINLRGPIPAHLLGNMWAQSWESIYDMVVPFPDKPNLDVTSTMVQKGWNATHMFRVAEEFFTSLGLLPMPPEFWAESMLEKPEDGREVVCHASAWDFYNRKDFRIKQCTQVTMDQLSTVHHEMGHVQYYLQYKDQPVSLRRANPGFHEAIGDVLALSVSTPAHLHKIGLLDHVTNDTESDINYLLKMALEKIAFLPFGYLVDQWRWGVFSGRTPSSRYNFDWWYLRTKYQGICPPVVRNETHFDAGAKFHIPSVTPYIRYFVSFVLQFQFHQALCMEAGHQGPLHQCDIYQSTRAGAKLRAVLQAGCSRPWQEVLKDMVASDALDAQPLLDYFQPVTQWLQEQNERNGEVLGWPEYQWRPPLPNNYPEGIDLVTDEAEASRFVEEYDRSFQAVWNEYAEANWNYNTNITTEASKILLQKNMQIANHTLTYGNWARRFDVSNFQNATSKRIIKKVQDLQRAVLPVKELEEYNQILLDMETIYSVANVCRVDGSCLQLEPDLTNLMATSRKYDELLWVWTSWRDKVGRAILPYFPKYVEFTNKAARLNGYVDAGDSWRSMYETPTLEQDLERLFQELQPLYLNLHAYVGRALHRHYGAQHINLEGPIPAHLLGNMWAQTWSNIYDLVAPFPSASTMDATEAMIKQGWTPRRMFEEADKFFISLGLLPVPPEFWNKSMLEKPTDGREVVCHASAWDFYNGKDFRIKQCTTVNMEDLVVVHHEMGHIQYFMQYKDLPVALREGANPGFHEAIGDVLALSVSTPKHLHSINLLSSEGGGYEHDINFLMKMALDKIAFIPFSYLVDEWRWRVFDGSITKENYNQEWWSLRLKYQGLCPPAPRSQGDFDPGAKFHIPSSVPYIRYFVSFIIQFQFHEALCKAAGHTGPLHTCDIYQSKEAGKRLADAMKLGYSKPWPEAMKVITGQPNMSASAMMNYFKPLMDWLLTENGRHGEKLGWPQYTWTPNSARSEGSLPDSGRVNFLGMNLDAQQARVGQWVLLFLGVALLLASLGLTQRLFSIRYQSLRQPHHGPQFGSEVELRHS
Description: The activity of angiotensin-converting enzyme was measured by spectrophotometry according to the method of Biochem. Pharmacol., 20. 1637 (1971). That is, the absorbance of hippuric acid was measured, which is liberated by incubating hippuryl-L-histidyl-L-leucine (HHL) as substrate in the presence of angiotensin-converting enzyme extracted from rabbit lung. The reaction mixture is as follows: 100 mM phosphate buffer (pH 8.3) 300 mM sodium chloride 5 mM HHL […] enzyme inhibitor 5 mU enzyme 0.25 ml of the above mixture was incubated at 37° C. for 30 minutes and the reaction was stopped by adding 0.25 ml of 1 N hydrochloric acid. […] The absorbance of this solution was measured at 228 nm.

Acute toxicity test = format: in vivo; settings: mouse, in vivo, ip
Description: (§3) The male ddy-std strain mice (4 weeks of age, weighing 19-21 g) were placed in a breeding room of constant temperature and humidity (23±1° C., 55±5%) and fed freely pellet diet (CE-2, Clea Japan Inc.) and water ad. libitum for a week. The mice showing the normal growth were selected for the experiment.
(§4) Test compounds are suspended in 0.5% tragacanth solution, and administered intraperitoneally in a dose of 0.5 ml of 20 g body weight.

male ddy-std strain mice = test: Acute toxicity test; format: in vivo; settings: male ddy-std mice, intraperitoneally
Description: as §3, §4

Compound	AC50 [1]	pIC50 [2]	pIC50 [3]	LD50 (Acute toxicity test)	Acute toxicity (result in words) (male ddy-std strain mice)
C[C@H](CS)C(=O)N1C(C(=O)O)CCC1c1ccccc1O (single isomer, unassigned) [Compound C]	2 nM	6.80	5.96		
C[C@H](CS)C(=O)N1C(C(=O)O)CCC1c1ccccc1O (single isomer, unassigned) [Compound D]	2.6 nM	6.82	5.92		
O=C(O)C1CCC(c2ccccc2O)N1C(=O)CCS (stereo not drawn) [Compound A, α-5-(2-hydroxyphenyl)-1-(3-mercaptopropanoyl)-2-pyrrolidinecarboxylic acid]	1.8 nM	6.77	6.25	1000 to 1250 mg/kg	low
O=C(O)C1CCC(c2ccc(O)cc2)N1C(=O)CCS (stereo not drawn) [Compound B, α-5-(4-hydroxyphenyl)-1-(3-mercaptopropanoyl)-2-pyrrolidinecarboxylic acid]	9.8 nM	6.32	6.36		
O=C(O)C1CCC(c2ccccc2O)N1C(=O)CCS (stereo not drawn) [Compound E, α1-5-(2-hydroxyphenyl)-1-(3-mercaptopropanoyl)-2-pyrrolidinecarboxylic acid]	0.95 nM	7.12	7.19		
C[C@H](CS)C(=O)N1CSC[C@H]1C(=O)O [Compound Z, (4R)-3-[(2S)-3-mercapto-2-methylpropanoyl]-4-thiazolidinecarboxylic acid, reference compound]	2.6 nM	6.77			

Reference: patent US4264620A, “Antihypertensive 5-substituted 2-pyrrolidinecarboxylic acids” (Santen Pharmaceutical Co., Ltd., priority 1978, dated 1981)
